# Data from PMC12621184, “Synthesis and Pharmacological Characterization of Nociceptin/Orphanin FQ Dimeric Ligands” (Journal of Medicinal Chemistry, 2025).
# “And” between values parts separate entries of the source, which are not always exact repeats. Equal entries are not always repeated. Bridge positions count the residues as written; N and C are the ends. Peptide text beside a SMILES is read from it. I, II: the chains in the order shown.
# Assays:
# [1] = test system: mouse vas deferens from NOP(−/−) mice; experiment: Electrically stimulated mouse vas deferens bioassay, NOP(−/−) tissues; details: mVD from CD-1 NOP(−/−) mice; 5 experiments
# Protocol: This study was approved by the Animal Welfare Body of the University of Ferrara and by the Italian Ministry of Health (authorization number CBCC2.N.BXI). Experiments were performed on an isolated mouse vas deferens. All experiments were conducted with mice bred and housed in the University of Ferrara’s animal facility under specific pathogen-free conditions (SPF). All mice were housed in cages with individual ventilation, with a constant temperature of 21 °C, 60% humidity, and a 12 h light/dark cycle. Food and water were provided ad libitum. CD-1 NOP(+/+) and CD-1 NOP(−/−) male mice, aged 9 to 12 months, were used. Animals were sacrificed on the day of the experiment with CO2 overdose. Bioassay experiments were performed as previously described. The tissues were suspended in 5 mL organ bath containing Krebs solution (NaCl 118.5 […]). The Krebs solution was oxygenated with 95% O2 and 5% CO2 and the temperature set at 33 °C with a resting tension of 0.3 g applied to the tissues. Tissues were stimulated through two platinum electrodes with a supramaximal rectangular pulse of 1 ms duration, 0.05 Hz frequency, and 80 V of amplitude. The electrically evoked contractions were measured isotonically by means of Basile strain gauge transducers (Basile, IT) and a recorder with a Power Lab 8 instrument (ADInstruments, CO, U.S.). Following an equilibration period of approximately 60 min, the contractions induced by electrical field stimulation were stable. At this time, cumulative concentration response curves were carried out.
# (§1) Concentration-response curves to agonists were analyzed by a four-parameter logistic nonlinear regression model: Effect = baseline + (E max – baseline)/(1 + 10^((logEC50–log[ligand])slope)). […] Experimental data were expressed as mean ± sem of at least 5 experiments. Potency values were expressed as the mean and CL95%. In vitro E max values were analyzed by one-way ANOVA, while in vivo latency data were evaluated by one-way ANOVA followed by Dunnett’s post hoc test. […]
# [2] = test system: loss of the righting reflex (RR) in mice; experiment: Loss of the righting reflex assay in mice; type: in vivo, mouse; details: icv
# Protocol: All of the experimental procedures adopted in the in vivo studies comply with the European Directive 2010/63/EU on protecting animals used for scientific purposes and Italian Legislative Decree no. 26 of March 4, 2014. These experiments were approved by the Animal Welfare Body of the University of Ferrara and by the Ministry of Health (authorization number 677/2024-PR). In vivo studies have been reported following ARRIVE guidelines. All experiments were conducted with mice bred and housed in the University of Ferrara’s animal facility under specific pathogen-free conditions. All mice were housed in cages with individual ventilation, with a constant temperature of 21 °C, 60% humidity, and a 12 h light/dark cycle. Food and water were provided ad libitum. CD-1 male and female mice, aged 2 to 4 months, were used. Details about the generation of NOP(−/−) and NOP(+/+) mice have been published previously; , these mice have been backcrossed on CD-1 strain in our laboratories. NOP(+/+) and NOP(−/−) littermates were obtained by mating with NOP(±) mice. All mice were genotyped using the polymerase chain reaction previously described. All mice were used only once. The RR assay was performed as previously described. […] Diazepam 15 mg/kg was injected ip. When the animals lost RR, they were placed in a plastic cage, and the time was recorded by an expert observer, blind to drug treatments and/or genotype. Animals were judged to have regained the RR response when they could correct themselves three times within 30 s. Sleeping time is defined as the amount of time between the loss and regaining of the RR; it was rounded to the nearest minute.
# (§2) Concentration-response curves to agonists were analyzed by a four-parameter logistic nonlinear regression model: Effect = baseline + (E max – baseline)/(1 + 10^((logEC50–log[ligand])slope)). […] Experimental data were expressed as mean ± sem of at least 5 experiments. Potency values were expressed as the mean and CL95%. In vitro E max values were analyzed by one-way ANOVA, while in vivo latency data were evaluated by one-way ANOVA followed by Dunnett’s post hoc test. The proportion of mice losing the righting reflex was compared by Fisher’s exact test performed on raw data. GraphPad Prism 10.0 software was used for all of the analyses. The terminology employed is consistent with the International Union of Basic and Clinical Pharmacology (IUPHAR) recommendations. ,
# human NOP = human NOP (Homo sapiens, UniProt P41146); experiment: Calcium mobilization assay, CHO cells with NOP receptor and chimeric G protein; type: cell-based; parameters: expressed in transfected cells
# Protocol: (§3) Chinese hamster ovary (CHO) cells stably coexpressing the human NOP, μ, or κ opioid receptors and the Gαqi5 protein or the human δ and the GαqG66Di5 protein were used in this assay. , Cells were cultured in DMEM/F-12 (1:1) medium supplemented with 10% FBS, 2 mM L-glutamine, […], 100 IU/mL penicillin, and 100 IU/mL streptomycin. Cells were maintained at 37 °C in a humidified atmosphere with 5% CO2 and were seeded at 50 000 cells/well into 96-well black, clear-bottom plates 24 h before test. Loading for 45 min with a solution consisting of HBSS supplemented with 2.5 mM probenecid, 3 μM Fluo-4 AM, and 0.01% pluronic acid ensures the calcium-sensitive dye (Fluo-4) reaches the needed concentration inside the cell, while the exchange of the solution with 100 μL/well of buffer consisting of HBSS with 20 mM HEPES, 2.5 mM probenecid, and 500 μM Brilliant Black allows for fluorescence background to decrease. Serial dilutions of ligands were prepared in HBSS buffer with 20 mM HEPES and 0.02% bovine serum albumin (BSA) to minimize the ligands’ stickiness to plasticware. The automated microplate reader FlexStation II (Molecular Devices, CA, US) was employed at 37 °C to detect changes in fluorescence intensity. The effects of all compounds were expressed as the maximum change in percentage over the baseline fluorescence measured in samples treated with vehicles.
# as §2
# [3] = test system: loss of the righting reflex (RR) in NOP(−/−) mice; experiment: Loss of the righting reflex assay in NOP(−/−) mice; type: in vivo, mouse; details: 10 nmol, icv; N = 7–9 per group
# Protocol: All of the experimental procedures adopted in the in vivo studies comply with the European Directive 2010/63/EU on protecting animals used for scientific purposes and Italian Legislative Decree no. 26 of March 4, 2014. These experiments were approved by the Animal Welfare Body of the University of Ferrara and by the Ministry of Health (authorization number 677/2024-PR). In vivo studies have been reported following ARRIVE guidelines. All experiments were conducted with mice bred and housed in the University of Ferrara’s animal facility under specific pathogen-free conditions. All mice were housed in cages with individual ventilation, with a constant temperature of 21 °C, 60% humidity, and a 12 h light/dark cycle. Food and water were provided ad libitum. […] When the animals lost RR, they were placed in a plastic cage, and the time was recorded by an expert observer, blind to drug treatments and/or genotype. […]
# as §1
# human κ opioid receptor = molecular target: T1, human κ opioid receptor (Homo sapiens, UniProt P41145); experiment: Calcium mobilization assay, CHO cells with κ receptor and chimeric G protein; type: cell-based; details: CHO cells coexpressing human κ receptor and Gαqi5; 5 experiments in duplicate; read-out: calcium mobilization at κ receptor, concentration up to which inactive
# T1 construct: expressed in transfected cells
# Protocol: as §3, with “vehicles. […]” for “vehicles.”
# human μ opioid receptor = molecular target: T2, human μ opioid receptor (Homo sapiens, UniProt P35372); experiment: Calcium mobilization assay, CHO cells with μ receptor and chimeric G protein; type: cell-based; details: CHO cells coexpressing human μ receptor and Gαqi5; 5 experiments in duplicate; read-out: calcium mobilization at μ receptor, concentration up to which inactive
# T2 construct: expressed in transfected cells
# Protocol: as §3, with “vehicles. […]” for “vehicles.”
# human δ opioid receptor = molecular target: T3, human δ opioid receptor (Homo sapiens, UniProt P41143); experiment: Calcium mobilization assay, CHO cells with δ receptor and chimeric G protein; type: cell-based; details: CHO cells coexpressing human δ receptor and GαqG66Di5; 5 experiments in duplicate; read-out: calcium mobilization at δ receptor, concentration up to which inactive
# T3 construct: expressed in transfected cells
# Protocol: as §3, with “vehicles. […]” for “vehicles.”
# Chain of human NOP (P41146 whole entry): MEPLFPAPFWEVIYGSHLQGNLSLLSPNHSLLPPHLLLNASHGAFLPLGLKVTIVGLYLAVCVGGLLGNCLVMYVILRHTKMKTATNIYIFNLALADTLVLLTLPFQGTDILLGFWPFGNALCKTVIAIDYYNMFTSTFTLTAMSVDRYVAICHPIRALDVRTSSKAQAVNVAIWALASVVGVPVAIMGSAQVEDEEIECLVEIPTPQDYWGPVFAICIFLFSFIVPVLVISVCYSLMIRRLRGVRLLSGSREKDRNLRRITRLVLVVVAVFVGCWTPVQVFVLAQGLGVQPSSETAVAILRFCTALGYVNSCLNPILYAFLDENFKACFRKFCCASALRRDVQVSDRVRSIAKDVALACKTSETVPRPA
# T1 sequence (P41145 whole entry): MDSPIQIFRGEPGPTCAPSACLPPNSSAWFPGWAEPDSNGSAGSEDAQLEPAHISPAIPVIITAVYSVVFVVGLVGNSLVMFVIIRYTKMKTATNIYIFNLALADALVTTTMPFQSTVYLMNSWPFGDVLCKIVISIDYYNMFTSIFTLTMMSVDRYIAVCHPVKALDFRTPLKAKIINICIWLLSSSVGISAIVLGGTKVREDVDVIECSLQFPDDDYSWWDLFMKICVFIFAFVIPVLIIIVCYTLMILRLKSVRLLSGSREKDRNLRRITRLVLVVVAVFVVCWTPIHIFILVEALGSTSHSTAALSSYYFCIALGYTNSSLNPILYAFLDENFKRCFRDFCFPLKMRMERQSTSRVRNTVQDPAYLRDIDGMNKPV
# T3 sequence (P41143 whole entry): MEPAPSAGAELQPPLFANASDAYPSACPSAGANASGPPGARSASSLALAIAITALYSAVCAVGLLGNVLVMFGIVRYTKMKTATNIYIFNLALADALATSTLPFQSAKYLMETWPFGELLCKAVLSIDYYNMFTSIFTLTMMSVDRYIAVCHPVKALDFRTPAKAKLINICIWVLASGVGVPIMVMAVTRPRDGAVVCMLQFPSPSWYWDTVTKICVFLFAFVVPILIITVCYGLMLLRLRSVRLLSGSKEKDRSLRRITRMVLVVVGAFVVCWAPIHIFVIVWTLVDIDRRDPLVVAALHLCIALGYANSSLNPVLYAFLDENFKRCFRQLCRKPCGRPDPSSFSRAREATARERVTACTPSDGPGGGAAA
# T2 sequence (P35372 whole entry): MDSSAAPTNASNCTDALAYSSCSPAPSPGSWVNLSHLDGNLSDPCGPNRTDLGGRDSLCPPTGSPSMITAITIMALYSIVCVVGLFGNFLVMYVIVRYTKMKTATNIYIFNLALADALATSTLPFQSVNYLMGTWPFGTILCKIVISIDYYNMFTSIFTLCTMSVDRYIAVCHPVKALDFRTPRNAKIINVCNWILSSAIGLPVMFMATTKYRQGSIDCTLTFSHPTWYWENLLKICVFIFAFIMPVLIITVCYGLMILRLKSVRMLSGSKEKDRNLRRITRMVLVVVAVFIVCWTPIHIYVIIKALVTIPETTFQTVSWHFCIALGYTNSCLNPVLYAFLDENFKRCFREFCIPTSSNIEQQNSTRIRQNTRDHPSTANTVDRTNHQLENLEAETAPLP
smiles,measurement,setting,value
"C[C@H](NC(=O)CNC(=O)[C@@H](NC(=O)[C@H](Cc1ccccc1)NC(=O)CNC(=O)CNC(=O)[C@@H](N)Cc1ccccc1)[C@@H](C)O)C(=O)N[C@@H](CCCNC(=N)N)C(=O)N[C@@H](CCCCN)C(=O)N[C@@H](CO)C(=O)N[C@@H](C)C(=O)N[C@@H](CCCNC(=N)N)C(=O)N[C@@H](CCCCN)C(=O)N[C@@H](CSSC[C@H](NC(=O)[C@H](CCCCN)NC(=O)[C@H](CCCNC(=N)N)NC(=O)[C@H](C)NC(=O)[C@H](CO)NC(=O)[C@H](CCCCN)NC(=O)[C@H](CCCNC(=N)N)NC(=O)[C@H](C)NC(=O)CNC(=O)[C@@H](NC(=O)[C@H](Cc1ccccc1)NC(=O)CNC(=O)CNC(=O)[C@@H](N)Cc1ccccc1)[C@@H](C)O)C(=O)N[C@@H](C)C(=O)N[C@@H](CC(N)=O)C(=O)N[C@@H](CCC(N)=O)C(N)=O)C(=O)N[C@@H](C)C(=O)N[C@@H](CC(N)=O)C(=O)N[C@@H](CCC(N)=O)C(N)=O [1h, [[Cys^14]N/OFQ-NH2]2] (I: H-FGGFTGARKSARKCANQ-NH2 / II: H-FGGFTGARKSARKCANQ-NH2; disulfide I:14-II:14; N-terminus assumed)",effect in mVD tissues from NOP(−/−) mice (in words),[1],no effect
same,"mice that lost the RR, 3 nmol","[2]; 3 nmol, CD-1 mice, N = 8–10 per group",75%
same,"mice that lost the RR, 10 nmol","[2]; 10 nmol, CD-1 mice, N = 8–10 per group",all mice
same,sleep duration (interval between loss and recovery of the RR),"[2]; 3 and 10 nmol, only mice that lost the RR, experimental cutoff 420 min",≥ 420 min
same,potency in eliciting loss of the RR relative to N/OFQ,"[2]; mice, vs N/OFQ (and N/OFQ-NH2)",3 fold
same,duration of the effect on RR,[2]; experimental cutoff 7 h,≥ 7 h
same,EC50,"human NOP; CHO cells coexpressing human NOP and Gαqi5, Fluo-4, 37 °C, mean (CL95%), N = 5 experiments in duplicate, read-out: Ca^2+ mobilization pEC50 (CL95%) (converted)",< 1 nM and 0.724 nM
same,Ca^2+ mobilization E max ± sem,"human NOP; CHO cells coexpressing human NOP and Gαqi5, maximum change in percentage over baseline fluorescence, mean ± sem, N = 5 in duplicate",241 ± 38 % over the baseline
same,selectivity for the NOP over classical opioid receptors,"human NOP; calcium mobilization, NOP vs μ, δ, κ receptors",more than 1000 fold
same,loss of the RR in NOP(−/−) mice (in words),[3],completely inactive
same,EC50,human κ opioid receptor,> 1000 nM
same,EC50,human μ opioid receptor,> 1000 nM
same,EC50,human δ opioid receptor,> 1000 nM
